The values below are quoted from earlier work in PubChem BioAssay AID977608.

For the data set, the target named is Cruzipain (Trypanosoma cruzi) (UniProt P25779). Kind of data set: literature IC50 values for PDB complexes, PDB-derived complexes (AID 977608). As to conditions: PDB protein-ligand complexes, protein: cruzain, chain 3I06_A, PDB entry 3I06.

For `CCn1cnc2c(Nc3cc(F)cc(F)c3)nc(C=N)nc21`, the IC50 (commonly the concentration needed to halve the response being measured) is 0.2 nM.
